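Compound exposure: 48 hours, 5 concentrations, 96-well plates. TGI marks complete inhibition of growth.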
Key:
Test in all cases: NCI tumour cell line growth inhibition, 48 h
[1] = test system: OVCAR-3 ovarian
[2] = test system: 786-0 renal
[3] = test system: NCI-H226 lung
[4] = test system: SN12C renal
[5] = test system: TK-10 renal
[6] = test system: K-562 leukemia
[7] = test system: UACC-257 melanoma
[8] = test system: BT-549 breast
[9] = test system: MDA-MB-435
[10] = test system: T-47D breast

| SMILES | TGI [1] [µM] | TGI [2] [µM] | TGI [3] [µM] | TGI [4] [µM] | TGI [5] [µM] | TGI [6] [µM] | TGI [7] [µM] | TGI [8] [µM] | TGI [9] [µM] | TGI [10] [µM] |
| --- | --- | --- | --- | --- | --- | --- | --- | --- | --- | --- |
| Cc1ccc(S(=O)(=O)c2ccc(C)cc2[N+](=O)[O-])c([N+](=O)[O-])c1 | > 100 | > 100 | > 100 | > 100 | > 100 | > 100 | – | – | – | – |
| Cc1c(-c2coc(-c3ccc([N+](=O)[O-])cc3)n2)c(=O)n(-c2ccccc2)n1C | > 100 | > 100 | > 100 | > 100 | > 100 | – | > 100 | – | – | – |
| O=C(c1ccccc1)c1ccc(N2C(=O)/C(=C/c3ccccc3S)N=C2c2ccccc2)c(N2C(=O)/C(=C/c3ccccc3S)N=C2c2ccccc2)c1 | 51.2 | > 100 | – | > 100 | > 100 | > 100 | > 100 | > 100 | 46.1 | > 100 |
| CCOC(=O)/C=C(/C(=O)OCC)n1ccc(=O)n(Cc2cn(CCCCOC(C)=O)nn2)c1=O | > 100 | > 100 | > 100 | > 100 | > 100 | > 100 | > 100 | > 100 | > 100 | > 100 |
| CCC1=CC(OCc2ccccc2)C(CCN(Cc2ccccc2)C(=O)OCc2ccccc2)C1 (stereo unspecified) | 28.4 | 40.1 | 36.5 | – | 30.9 | > 100 | 30.3 | – | 32.7 | 22.8 |
| Cc1cn(C2CC(O)C(Cn3nncc3Cn3cnc4c(N)ncnc43)O2)c(=O)[nH]c1=O (stereo unspecified) | > 100 | > 100 | > 100 | > 100 | > 100 | – | > 100 | > 100 | > 100 | > 100 |
| O=C(O)C12C3CCC(C3)C1(C(=O)O)C1CCC2C1 (stereo unspecified) | > 100 | > 100 | > 100 | > 100 | > 100 | > 100 | > 100 | – | – | – |
| CN1CCS(=O)(=O)NC(Cc2ccccc2)C(=O)N2CCCC2C1=O (stereo unspecified) | > 100 | > 100 | > 100 | > 100 | > 100 | > 100 | > 100 | – | – | – |
| C1CSCCSCCSCCSCCS1 | > 100 | > 100 | > 100 | > 100 | > 100 | > 100 | > 100 | > 100 | > 100 | > 100 |
| Nc1ccc(-c2nc3ccccc3s2)cc1CO | > 100 | > 100 | – | > 100 | > 100 | > 100 | > 100 | > 100 | > 100 | > 100 |
| COc1ccc2nc3c4c(nccc4c2c1)-c1ncccc1C3=O | 0.0569 | 0.208 | 0.445 | 0.298 | 0.613 | 0.174 | 0.196 | 0.528 | 0.148 | 4.81 |
| C=CC(C)(C)NC(C(=O)N1CCC[C@H]1c1nc(-c2nc(C(=O)OCC=C(C)C)c(C)o2)c(C)o1)C(C)C (stereo partly specified) | > 100 | > 100 | > 87.7 | > 72.2 | > 100 | > 100 | > 100 | > 100 | > 72 | > 100 |

Reference: PubChem BioAssay (NCI)
